The values that follow come from patent US8349899B1 (Arrowhead Center, Inc., priority 2008, dated 2013).

For assay [1], the system named is HeLa cervical adenocarcinoma cells. Briefly: bipolar spindle formation in HeLa cells. It is filed as cell-based, human. As to conditions: for inhibitory activity in the cell-based assay: HeLa bipolar spindle formation; for IC50: read-out: Bipolar spindle formation IC50. As to the method: (§1) Biochemical- and cell-based assays were used to evaluate the inhibitory activities of the STLC analogs. Using a commercially available assay from Cytoskeleton, Inc, analogs were assayed for their ability to block the microtubule-activated ATPase activity of recombinant human EG5 motor domain. In parallel, HeLa cells were treated for four hours with a range of concentrations, and then fixed, stained for microtubules, and mitotic cells were scored for spindle bipolarity.

In assay [2] the target is T1, recombinant human EG5 motor domain (Homo sapiens, UniProt P52732).
T1 construct: recombinant human EG5 motor domain; purchased Cytoskeleton, Inc
T1 sequence (P52732 18-359 limits assumed): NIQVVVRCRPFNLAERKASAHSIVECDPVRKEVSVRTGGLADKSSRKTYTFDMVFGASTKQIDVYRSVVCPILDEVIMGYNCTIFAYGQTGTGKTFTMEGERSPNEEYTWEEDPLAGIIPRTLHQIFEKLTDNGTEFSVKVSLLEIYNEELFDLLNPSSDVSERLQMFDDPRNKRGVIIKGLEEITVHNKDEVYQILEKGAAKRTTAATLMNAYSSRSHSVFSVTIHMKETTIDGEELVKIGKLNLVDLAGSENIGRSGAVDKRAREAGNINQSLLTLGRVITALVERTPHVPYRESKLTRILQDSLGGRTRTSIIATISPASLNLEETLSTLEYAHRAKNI
The assay is described as follows: microtubule-activated Eg5 ATPase assay (Cytoskeleton, Inc). It is filed as biochemical. As to conditions: for inhibitory activity in the biochemical assay: Eg5 ATPase assay; for IC50: microtubule-activated ATPase activity of recombinant human EG5 motor domain. As to the method:
as §1

In the next assay the test system is SF-295. As to conditions: Central Nervous System SF-295; data previously determined; cited from earlier work.
The test system of the next assay is UO-31. The settings on record: Renal UO-31; data previously determined; cited from earlier work.
In the next assay the test system is SK-OV-3. The settings on record: Ovarian SK-OV-3; data previously determined; cited from earlier work.
The subject of a further assay is NCI-H226. As to conditions: Non-Small Cell Lung NCI-H226; data previously determined; cited from earlier work.
The test system of another assay is HCT-116. As to conditions: Colon HCT-116; data previously determined; cited from earlier work.
Another assay has as its system OVCAR-5. The settings on record: Ovarian OVCAR-5; data previously determined; cited from earlier work.
The next assay concerns U251. The settings on record: Central Nervous System U251; data previously determined; cited from earlier work.
The subject of another assay is NCI-H522. As to conditions: Non-Small Cell Lung NCI-H522; data previously determined; cited from earlier work.
[3] abbreviates: Homo sapiens, HeLa cells treated with analog for 4 hours, scored for bipolar vs monopolar spindle formation.

Like-named read-outs stand apart in the source and are kept apart here. A value given as a limit tells only on which side of the number the result lay.

A word on the IC50: it is the concentration at which inhibition is half-maximal. Regarding `CC(=O)N[C@@H](CSC(c1ccccc1)(c1ccccc1)c1ccccc1)C(N)=O` [Compound 3.6, (R)-2-acetamido-3-(tritylthio)propanamide], the “inhibitory activity in the cell-based assay” value in [1] was “no measurable activity”. The IC50 in [1] (setting [3]) and in assay [2] was greater than 100000 nM in each case. Besides, the “inhibitory activity in the biochemical assay” value in [2] is “no measurable activity”.
With `NC(=O)[C@@H](N)CSC(c1ccccc1)(c1ccccc1)c1ccccc1` [Compound 3.3, (R)-2-amino-3-(tritylthio)propanamide], the IC50 turned out to be 670 nM in assay [1] (setting [3]) and 540 nM in assay [2].
With `CCCCNC(=O)[C@@H](N)CSC(c1ccccc1)(c1ccccc1)c1ccccc1` [Compound 3.8, (R)-2-amino-N-butyl-3-(tritylthio)propanamide], the IC50 stood at 680 nM in assay [1] (setting [3]) and 560 nM in [2].
As for `N[C@@H](CSC(c1ccccc1)c1ccccc1)C(=O)O` [Compound 2.9, (R)-2-amino-3-(benzhydrylthio)propanoic acid], the “inhibitory activity in the cell-based assay” value in [1] is “no measurable activity”. Moreover, the IC50 in assay [1] (setting [3]) is greater than 100000 nM. In addition, in [2], the “inhibitory activity in the biochemical assay” value was “no measurable activity” and the IC50 is greater than 100000 nM.
On to `COc1ccc(C(SC[C@@H](N)CO)(c2ccccc2)c2ccccc2)cc1` [Compound 1.3], for which the IC50 in [1] (Homo sapiens, HeLa, 4 h) stood at 200 nM.
Take `N[C@H](CO)CSC(c1ccccc1)(c1ccccc1)c1ccccc1` [Compound 1.1]: in assay [1] (Homo sapiens, HeLa, 4 h), the IC50 was found to be 580 nM.
“(R)-2-amino-3-(((4-methoxyphenyl)diphenylmethyl)thio)propanamide [Compound 3.9]”: in [1], the “inhibitory activity in the cell-based assay” value is “no measurable activity”. In addition, in [1] (HeLa cells treated with analog for 4 hours, scored for bipolar vs monopolar spindle formation), the IC50 is greater than 100000 nM. Also, the “inhibitory activity in the biochemical assay” value in assay [2] is given as “no measurable activity”.
On to `CC(=O)N[C@@H](CSC(c1ccccc1)(c1ccccc1)c1ccccc1)C(=O)O` [Compound 3.1, (R)-2-acetamido-3-(tritylthio)propanoic acid], for which the “inhibitory activity in the cell-based assay” value in assay [1] was “no measurable activity”. Further, in assay [1] (setting [3]), the IC50 is greater than 100000 nM. Also, in [2], the “inhibitory activity in the biochemical assay” value is “no measurable activity” and the IC50 was greater than 100000 nM.
By GI50 is commonly meant the concentration giving 50% growth inhibition. As to `N[C@@H](CSC(c1ccccc1)(c1ccccc1)c1ccccc1)C(=O)O` [Compound 2.5, (R)-2-amino-3-(tritylthio)propanoic acid], the GI50 with SF-295 is 500 nM; with UO-31 it was 100000 nM; in the assay on SK-OV-3, 100000 nM; in the assay on NCI-H226 it was 100000 nM; with HCT-116, 500 nM; with OVCAR-5, 100000 nM. Also, the figures for the GI50 with U251 and with NCI-H522 were 1000 nM and 500 nM, respectively. Moreover, in [1] (setting [3]), the 50% inhibitory concentration (IC50) came to 660 nM.
As for `N[C@@H](CSC1c2ccccc2-c2ccccc21)C(=O)O` [Compound 3.0, (R)-3-((9H-fluoren-9-yl)thio)-2-aminopropanoic acid], the “inhibitory activity in the cell-based assay” value in [1] is recorded as “no measurable activity”. In addition, the IC50 in [1] (setting [3]) is greater than 100000 nM. Further, in assay [2], the “inhibitory activity in the biochemical assay” value is recorded as “no measurable activity” and the IC50 is greater than 100000 nM.
For `C#CCNC(=O)[C@@H](N)CSC(c1ccccc1)(c1ccccc1)c1ccc(OC)cc1` [Compound 4.0], the IC50 in assay [1] (setting [3]) is 440 nM; in [2] it was 310 nM.
In the case of `COc1ccc(C(SC[C@H](N)C(=O)NCCOCCN)(c2ccccc2)c2ccccc2)cc1` [Compound 4.2, (R)-2-amino-N-(2-(2-aminoethoxy)ethyl)-3-(((4-methoxyphenyl)diphenylmethyl)thio)propanamide], the IC50 in assay [1] (setting [3]) stood at 540 nM; in [2] it was 280 nM.
For `C#CCNC(=O)[C@@H](N)CSC(c1ccccc1)(c1ccccc1)c1ccccc1` [Compound 3.5, (R)-2-amino-N-(prop-2-yn-1-yl)-3-(tritylthio)propanamide], the IC50 in [1] (setting [3]) was 760 nM; in assay [2], 490 nM.
For the molecule `N[C@@H](COC(c1ccccc1)(c1ccccc1)c1ccccc1)C(=O)O` [Compound 2.8, (S)-2-amino-3-(trityloxy)propanoic acid], the IC50 stood at 850 nM in assay [1] (setting [3]) and 760 nM in [2].
Take `COC(=O)[C@@H](N)CSC(c1ccccc1)(c1ccccc1)c1ccccc1` [Compound 3.2, (R)-methyl 2-amino-3-(tritylthio)propanoate]: the results for the IC50 in assay [1] (setting [3]) and in [2] were 920 nM and 510 nM, respectively.
`N[C@@H](CSC(c1ccccc1)(c1ccccc1)c1cccnc1)C(=O)O` [Compound 3.4, (R)-2-amino-3-((diphenyl(pyridin-3-yl)methyl)thio)propanoic acid]: the “inhibitory activity in the cell-based assay” value in [1] was “no measurable activity”. Moreover, the IC50 in assay [1] (setting [3]) and in assay [2] was greater than 100000 nM in each case. Also, the “inhibitory activity in the biochemical assay” value in [2] is “no measurable activity”.
Consider `N[C@@H](CSCC1c2ccccc2-c2ccccc21)C(=O)O` [Compound 2.7, (R)-3-(((9H-fluoren-9-yl)methyl)thio)-2-aminopropanoic acid], for which the “inhibitory activity in the cell-based assay” value in assay [1] is given as “no measurable activity”. Also, the IC50 in assay [1] (setting [3]) was greater than 100000 nM. Besides, in assay [2], the “inhibitory activity in the biochemical assay” value is “no measurable activity” and the IC50 was greater than 100000 nM.
